Measured values as given in PubChem BioAssay (NCI).
“And” between values parts separate entries of the source, which are not always exact repeats. Equal entries are not always repeated.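 Five concentrations, 48 hours, 96-well plates. GI50: concentration for 50% inhibition of growth. TGI: total growth inhibition.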

Key:
Assay in all cases: inhibition of tumour cell growth, NCI panel, 48 h
IGROV1 ovarian = tested on: IGROV1 ovarian
OVCAR-3 ovarian = tested on: OVCAR-3 ovarian
SK-MEL-5 melanoma = tested on: SK-MEL-5 melanoma
MALME-3M melanoma = tested on: MALME-3M melanoma
HT29 colon = tested on: HT29 colon
UO-31 renal = tested on: UO-31 renal
HOP-92 NSCLC = tested on: HOP-92 NSCLC
NCI-H460 lung = tested on: NCI-H460 lung
HCT-116 colon = tested on: HCT-116 colon
NCI-H522 lung = tested on: NCI-H522 lung

SMILES | GI50 (IGROV1 ovarian) | TGI (IGROV1 ovarian) | GI50 (OVCAR-3 ovarian) | TGI (OVCAR-3 ovarian) | GI50 (SK-MEL-5 melanoma) | TGI (SK-MEL-5 melanoma) | GI50 (MALME-3M melanoma) | TGI (MALME-3M melanoma) | GI50 (HT29 colon) | TGI (HT29 colon) | GI50 (UO-31 renal) | TGI (UO-31 renal) | GI50 (HOP-92 NSCLC) | TGI (HOP-92 NSCLC) | GI50 (NCI-H460 lung) | TGI (NCI-H460 lung) | GI50 (HCT-116 colon) | TGI (HCT-116 colon) | GI50 (NCI-H522 lung) | TGI (NCI-H522 lung)
COc1ccc(C(=O)/C=C/c2sc(Cl)nc2Cl)cc1 | 0.368 µM | 1.91 µM | 1.84 µM | 3.48 µM | 1.53 µM | 4.15 µM | 0.805 µM | 3.33 µM | 1.89 µM | 4.66 µM | 1.45 µM | 2.9 µM | 4.06 µM | 18 µM | 3.17 µM | 10.6 µM | 0.49 µM | 1.84 µM | 0.452 µM | 4.85 µM
c1ccc2c(c1)[nH]c1cnc3c4ncccc4[nH]c3c12 |  | > 100 µM |  | > 100 µM |  | > 100 µM |  | > 100 µM |  | > 100 µM |  | > 100 µM |  | 79.3 µM |  | > 100 µM |  | > 100 µM |  | > 100 µM
O=C1c2c(O)cccc2C(C(=O)CCCCCC(=O)C2c3cccc(O)c3C(=O)c3c(O)cccc32)c2cccc(O)c21 | 12.5 µM | 6.13 µM and 28.6 µM | 1.73 µM | 3.19 µM and 5.98 µM | 7.96 µM |  | 8.38 µM | 5.87 µM and 15.3 µM | 11.8 µM | 11.4 µM and 23.1 µM | 7.85 µM | 3.88 µM and 14.5 µM |  | 16.8 µM | 1.57 µM | 1.62 µM and 5.23 µM | 7.61 µM | 25 µM and 14.9 µM | 6.72 µM | 
O=C(Nc1ccccc1[N+](=O)[O-])/C(=N/Nc1cccc(Cl)c1)c1c(O)c2ccccc2oc1=O |  | > 100 µM |  | > 100 µM |  | > 100 µM |  | > 100 µM |  | > 100 µM |  | > 100 µM |  | 96.5 µM |  | > 100 µM |  | 53.6 µM |  | > 100 µM
Nc1cn(C2OC(CC(c3ccccc3)(c3ccccc3)c3ccccc3)C(O)C2O)c(=O)[nH]c1=O (configuration not stated) |  | 70.7 µM |  | 37.9 µM |  | 37.4 µM |  | 55.7 µM |  | 58.8 µM |  | > 100 µM |  | 39 µM |  | 39.5 µM |  | 32 µM |  | 38.3 µM
C[C@@H]1CC[C@H]2[C@@H](C)C(O)O[C@@H]3O[C@]4(C)CC[C@@H]1[C@]32OO4 (some centres not stated) | 1.13 µM | 5.23 µM | 0.431 µM | 15.6 µM | 0.53 µM | 16.6 µM | 1.54 µM | > 66.1 µM | 0.634 µM | 13.5 µM | 0.375 µM | 2.31 µM | 0.716 µM | 7.05 µM | 1.33 µM | 15 µM | 0.141 µM | 3.55 µM | 0.329 µM | 3.29 µM
NCCOc1ccc(/C(=C(/Cl)c2ccccc2)c2ccccc2)cc1 |  | 29.9 µM |  | 26.2 µM |  | 22.3 µM |  | 24.3 µM |  | 7.81 µM |  | 21.4 µM |  | 16.8 µM |  | 21.6 µM |  | 20.2 µM |  | 26.4 µM
CCn1cnc(C[C@H](NC(=O)[C@H](CCCCNC(=O)Nc2cc(C(F)(F)F)cc(C(F)(F)F)c2)NC(=O)Nc2cc(C(F)(F)F)cc(C(F)(F)F)c2)C(=O)OC)c1 | 5.27 µM | > 10 µM | 3.32 µM | > 10 µM | 7.75 µM | > 10 µM | > 10 µM | > 10 µM | 3.97 µM | > 10 µM | > 10 µM | > 10 µM | 2.24 µM | 9.81 µM | 3.43 µM | > 10 µM | 3.87 µM | > 10 µM | 5.19 µM | > 10 µM
NC1=NN(c2ccccc2)C(=O)C1C(=O)C(=O)Nc1ccc(Cl)cc1 (configuration not stated) |  | > 100 µM |  | > 100 µM |  | > 100 µM |  | > 100 µM |  | > 100 µM |  | > 100 µM |  | > 100 µM |  | > 100 µM |  | > 100 µM |  | > 100 µM
CCCCCCCCCCC(=O)CCCCCCC(=O)O |  | 34.9 µM |  | 40 µM |  | 29.3 µM |  | 45 µM |  | 36.1 µM |  | 71.9 µM |  | 35.8 µM |  | 30.9 µM |  | 26.7 µM |  | 50.5 µM
CN(C)c1ccc(/C=C/C(=O)c2ccc(Nc3nc(Nc4ccc(F)cc4)nc(Nc4ccc(F)cc4)n3)cc2)cc1 | 16.7 µM | 45 µM | 16.8 µM | 46 µM | 7.65 µM | 23.9 µM | 19.1 µM | 78.9 µM | 15.5 µM | 66.6 µM | 15.2 µM | 40.4 µM | 4.94 µM | 24 µM | 22 µM | > 100 µM | 11.4 µM | 32.4 µM | 16.2 µM | 58.4 µM
Cc1ccc2nc(NC(=O)C(=O)C(C(=O)c3ccc4ccccc4c3)C3OC(=O)c4ccccc43)sc2c1 (configuration not stated) |  | 44.3 µM |  | > 100 µM |  | 22.6 µM |  | 22.9 µM |  | 31.3 µM |  | 28.6 µM |  | 15.2 µM |  | 18 µM |  | 20.8 µM |  | 26.3 µM
COc1ccc(-c2nn(-c3cccc(Cl)c3)cc2/C=C2\NC(=S)N(c3ccc(Cl)cc3)C2=O)cc1 | 4.99 µM | 10.1 µM | 5.54 µM | 12.9 µM | 4.22 µM | 11 µM | 5.03 µM | 11.3 µM | 4.99 µM | 10.6 µM | 8.53 µM | > 25 µM | 1.84 µM | 8.07 µM | 4.7 µM | 18.4 µM | 3.18 µM | 7.75 µM | 1.98 µM | 6.21 µM
Cc1nnc(C[C@@H]2C=C(c3ccc(Cl)cc3)c3ccccc3-n3c(C)nnc32)o1 | 2.3 µM | > 100 µM | 1.08 µM | 19.8 µM | 1.81 µM | 19.7 µM | 5.01 µM | 64.6 µM | 0.241 µM | > 100 µM | 0.0739 µM | 44.4 µM | 1.96 µM | > 75.1 µM | 11.7 µM | > 100 µM | 0.472 µM | 31.9 µM | 0.578 µM | 32.4 µM
Cc1cc(=O)oc2c(C3=NN(C=O)C(c4ccccc4)C3)c(O)ccc12 (configuration not stated) |  | > 100 µM |  | > 100 µM |  | > 100 µM |  | > 85 µM |  | > 100 µM |  | > 100 µM |  | 74.5 µM |  | > 100 µM |  | > 100 µM |  | > 93.6 µM
